Measured values from PubChem BioAssay AID1919000 (Molecular Pharmacology Branch, DTP, NCI, 2023).

System: 653999-131-R-J2-PDC complex spheroids, growth % test/control
Experiment: Anticancer human tumor 653999-131-R-J2-PDC patient-derived lung adenocarcinoma cell line growth inhibition [AhR]
Conditions: for IC50: curve of first compound; for viability, T/C: stronger effect = lower value
How it was run: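 Complex tumor spheroids co-cultured with HUVEC and human MSC stroma; AhR antagonists tested in combination with standard-of-care and investigational agents. Top concentration at or near clinical Cmax (else 10 microM), half-log dilutions; growth expressed as percent test/control.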

[1] = second compound 0.1 µM, first compound 0.000949 µM
[2] = second compound 0.1 µM, first compound 0.003 µM
[3] = second compound 0.1 µM, first compound 0.00949 µM
[4] = second compound 0.1 µM, first compound 0.03 µM
[5] = second compound 0.1 µM, first compound 0.0949 µM
[6] = second compound 0.1 µM, first compound 0.3 µM
[7] = second compound 0.316 µM, first compound 0.000949 µM
[8] = second compound 0.316 µM, first compound 0.003 µM
[9] = second compound 0.316 µM, first compound 0.00949 µM
[10] = second compound 0.316 µM, first compound 0.03 µM
[11] = second compound 0.316 µM, first compound 0.0949 µM
[12] = second compound 0.316 µM, first compound 0.3 µM
[13] = second compound 1 µM, first compound 0.000949 µM
[14] = second compound 1 µM, first compound 0.003 µM
[15] = second compound 1 µM, first compound 0.00949 µM
[16] = second compound 1 µM, first compound 0.03 µM
[17] = second compound 1 µM, first compound 0.0949 µM
[18] = second compound 1 µM, first compound 0.3 µM
[19] = second compound 3.16 µM, first compound 0.000949 µM
[20] = second compound 3.16 µM, first compound 0.003 µM
[21] = second compound 3.16 µM, first compound 0.00949 µM
[22] = second compound 3.16 µM, first compound 0.03 µM
[23] = second compound 3.16 µM, first compound 0.0949 µM
[24] = second compound 3.16 µM, first compound 0.3 µM
[25] = second compound 10 µM, first compound 0.000949 µM
[26] = second compound 10 µM, first compound 0.003 µM
[27] = second compound 10 µM, first compound 0.00949 µM
[28] = second compound 10 µM, first compound 0.03 µM
[29] = second compound 10 µM, first compound 0.0949 µM
[30] = second compound 10 µM, first compound 0.3 µM
[31] = second compound 0.1 µM, first compound 0.0316 µM
[32] = second compound 0.1 µM, first compound 0.1 µM
[33] = second compound 0.1 µM, first compound 0.316 µM
[34] = second compound 0.1 µM, first compound 1 µM
[35] = second compound 0.1 µM, first compound 3.16 µM
[36] = second compound 0.1 µM, first compound 10 µM
[37] = second compound 0.316 µM, first compound 0.0316 µM
[38] = second compound 0.316 µM, first compound 0.1 µM
[39] = second compound 0.316 µM, first compound 0.316 µM
[40] = second compound 0.316 µM, first compound 1 µM
[41] = second compound 0.316 µM, first compound 3.16 µM
[42] = second compound 0.316 µM, first compound 10 µM
[43] = second compound 1 µM, first compound 0.0316 µM
[44] = second compound 1 µM, first compound 0.1 µM
[45] = second compound 1 µM, first compound 0.316 µM
[46] = second compound 1 µM, first compound 1 µM
[47] = second compound 1 µM, first compound 3.16 µM
[48] = second compound 1 µM, first compound 10 µM
[49] = second compound 3.16 µM, first compound 0.0316 µM
[50] = second compound 3.16 µM, first compound 0.1 µM
[51] = second compound 3.16 µM, first compound 0.316 µM
[52] = second compound 3.16 µM, first compound 1 µM
[53] = second compound 3.16 µM, first compound 3.16 µM
[54] = second compound 3.16 µM, first compound 10 µM
[55] = second compound 10 µM, first compound 0.0316 µM
[56] = second compound 10 µM, first compound 0.1 µM
[57] = second compound 10 µM, first compound 0.316 µM
[58] = second compound 10 µM, first compound 1 µM
[59] = second compound 10 µM, first compound 3.16 µM
[60] = second compound 10 µM, first compound 10 µM
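Also: spheroids exposed to agents for seven days.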
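For viability, T/C in this document: 100% = DMSO vehicle control viability.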

Question: Which IC50 (second compound 0.1 µM) does the source give for `CC(C)CC(NC(=O)C(Cc1ccccc1)NC(=O)c1cnccn1)B(O)O` (stereo not given) + Cc1cncc(-c2nc(NCCc3c[nH]c4ccccc34)c3ncn(C(C)C)c3n2)c1 here?
Answer: 22.3 nM

Question: And the IC50 (second compound 0.316 µM)?
Answer: 20.4 nM

Question: And the IC50 (second compound 1 µM)?
Answer: 21.4 nM

Question: What about the IC50 (second compound 3.16 µM) of the same compound?
Answer: 20.4 nM

Question: And the IC50 (second compound 10 µM)?
Answer: 4.28 nM

Question: And the viability, T/C [1]?
Answer: 94.5%

Question: And the viability, T/C [2]?
Answer: 130%

Question: And the viability, T/C [3]?
Answer: 103%

Question: And the viability, T/C [4]?
Answer: 29.3%

Question: And the viability, T/C [5]?
Answer: 9.65%

Question: What about the viability, T/C [6] of the same compound?
Answer: 3.26%

Question: And the viability, T/C [7]?
Answer: 108%

Question: And the viability, T/C [8]?
Answer: 108%

Question: And the viability, T/C [9]?
Answer: 113%

Question: What about the viability, T/C [10] of the same compound?
Answer: 20%

Question: What about the viability, T/C [11] of the same compound?
Answer: 8.44%

Question: What about the viability, T/C [12] of the same compound?
Answer: 2.71%

Question: What about the viability, T/C [13] of the same compound?
Answer: 100%

Question: What about the viability, T/C [14] of the same compound?
Answer: 126%

Question: And the viability, T/C [15]?
Answer: 112%

Question: And the viability, T/C [16]?
Answer: 24%

Question: What about the viability, T/C [17] of the same compound?
Answer: 7.89%

Question: And the viability, T/C [18]?
Answer: 3.25%

Question: What about the viability, T/C [19] of the same compound?
Answer: 118%

Question: What about the viability, T/C [20] of the same compound?
Answer: 121%

Question: What about the viability, T/C [21] of the same compound?
Answer: 112%

Question: What about the viability, T/C [22] of the same compound?
Answer: 18.5%

Question: What about the viability, T/C [23] of the same compound?
Answer: 4.53%

Question: And the viability, T/C [24]?
Answer: 2.13%

Question: What about the viability, T/C [25] of the same compound?
Answer: 59.6%

Question: And the viability, T/C [26]?
Answer: 66.7%

Question: What about the viability, T/C [27] of the same compound?
Answer: 20.5%

Question: What about the viability, T/C [28] of the same compound?
Answer: 2.12%

Question: What about the viability, T/C [29] of the same compound?
Answer: 0.89%

Question: What about the viability, T/C [30] of the same compound?
Answer: 0.72%

Question: Which results are given for `CCc1c2c(nc3ccc(O)cc13)-c1cc3c(c(=O)n1C2)COC(=O)[C@]3(O)CC` + Cc1cncc(-c2nc(NCCc3c[nH]c4ccccc34)c3ncn(C(C)C)c3n2)c1?
Answer: IC50 (second compound 0.1 µM): 4.27 nM; IC50 (second compound 0.316 µM): 3.22 nM; IC50 (second compound 1 µM): 4.17 nM; IC50 (second compound 3.16 µM): 5.21 nM; IC50 (second compound 10 µM): < 0.949 nM; viability, T/C [1]: 62.3%; viability, T/C [2]: 56.1%; viability, T/C [3]: 38.4%; viability, T/C [4]: 27.4%; viability, T/C [5]: 19.4%; viability, T/C [6]: 13.7%; viability, T/C [7]: 59.1%; viability, T/C [8]: 50.6%; viability, T/C [9]: 39.1%; viability, T/C [10]: 26.2%; viability, T/C [11]: 18.3%; viability, T/C [12]: 13%; viability, T/C [13]: 67.2%; viability, T/C [14]: 55%; viability, T/C [15]: 38.5%; viability, T/C [16]: 28.1%; viability, T/C [17]: 19.4%; viability, T/C [18]: 13.6%; viability, T/C [19]: 58%; viability, T/C [20]: 58.1%; viability, T/C [21]: 42.6%; viability, T/C [22]: 28%; viability, T/C [23]: 18.8%; viability, T/C [24]: 12.3%; viability, T/C [25]: 36.4%; viability, T/C [26]: 32.3%; viability, T/C [27]: 25.5%; viability, T/C [28]: 16%; viability, T/C [29]: 11.2%; viability, T/C [30]: 8.25%

Question: How did the IC50 (second compound 0.1 µM) turn out when `Nc1ccccc1NC(=O)c1ccc(CNC(=O)OCc2cccnc2)cc1` + Cc1cncc(-c2nc(NCCc3c[nH]c4ccccc34)c3ncn(C(C)C)c3n2)c1 was run?
Answer: 2930 nM

Question: And the IC50 (second compound 0.316 µM)?
Answer: 2890 nM

Question: And the IC50 (second compound 1 µM)?
Answer: 3060 nM

Question: What about the IC50 (second compound 3.16 µM) of the same compound?
Answer: 2710 nM

Question: And the IC50 (second compound 10 µM)?
Answer: 388 nM

Question: What about the viability, T/C [31] of the same compound?
Answer: 85.2%

Question: And the viability, T/C [32]?
Answer: 86.2%

Question: What about the viability, T/C [33] of the same compound?
Answer: 88.8%

Question: What about the viability, T/C [34] of the same compound?
Answer: 61.4%

Question: And the viability, T/C [35]?
Answer: 52%

Question: What about the viability, T/C [36] of the same compound?
Answer: 15.9%

Question: And the viability, T/C [37]?
Answer: 91.1%

Question: What about the viability, T/C [38] of the same compound?
Answer: 85.9%

Question: What about the viability, T/C [39] of the same compound?
Answer: 84.3%

Question: And the viability, T/C [40]?
Answer: 57.2%

Question: What about the viability, T/C [41] of the same compound?
Answer: 56.6%

Question: What about the viability, T/C [42] of the same compound?
Answer: 13.2%

Question: What about the viability, T/C [43] of the same compound?
Answer: 88.3%

Question: And the viability, T/C [44]?
Answer: 86.7%

Question: And the viability, T/C [45]?
Answer: 69.3%

Question: And the viability, T/C [46]?
Answer: 65.7%

Question: And the viability, T/C [47]?
Answer: 55.6%

Question: And the viability, T/C [48]?
Answer: 13.3%

Question: What about the viability, T/C [49] of the same compound?
Answer: 93%

Question: What about the viability, T/C [50] of the same compound?
Answer: 113%

Question: And the viability, T/C [51]?
Answer: 88.4%

Question: And the viability, T/C [52]?
Answer: 57.7%

Question: What about the viability, T/C [53] of the same compound?
Answer: 55.4%

Question: And the viability, T/C [54]?
Answer: 8.91%

Question: What about the viability, T/C [55] of the same compound?
Answer: 66.7%

Question: What about the viability, T/C [56] of the same compound?
Answer: 46.9%

Question: What about the viability, T/C [57] of the same compound?
Answer: 45.3%

Question: What about the viability, T/C [58] of the same compound?
Answer: 44.3%

Question: What about the viability, T/C [59] of the same compound?
Answer: 36.6%

Question: And the viability, T/C [60]?
Answer: 4.53%

Question: What does the source list for `O=C(c1cc(Cc2n[nH]c(=O)c3ccccc23)ccc1F)N1CCN(C(=O)C2CC2)CC1` + Cc1cncc(-c2nc(NCCc3c[nH]c4ccccc34)c3ncn(C(C)C)c3n2)c1?
Answer: IC50 (second compound 0.1 µM): > 10000 nM; IC50 (second compound 0.316 µM): > 10000 nM; IC50 (second compound 1 µM): > 10000 nM; IC50 (second compound 3.16 µM): > 10000 nM; IC50 (second compound 10 µM): 3010 nM; viability, T/C [31]: 99.2%; viability, T/C [32]: 101%; viability, T/C [33]: 92.2%; viability, T/C [34]: 94%; viability, T/C [35]: 97.7%; viability, T/C [36]: 79.3%; viability, T/C [37]: 96.2%; viability, T/C [38]: 106%; viability, T/C [39]: 97.1%; viability, T/C [40]: 102%; viability, T/C [41]: 91.5%; viability, T/C [42]: 86.3%; viability, T/C [43]: 108%; viability, T/C [44]: 114%; viability, T/C [45]: 112%; viability, T/C [46]: 103%; viability, T/C [47]: 96.9%; viability, T/C [48]: 91.3%; viability, T/C [49]: 102%; viability, T/C [50]: 109%; viability, T/C [51]: 112%; viability, T/C [52]: 114%; viability, T/C [53]: 101%; viability, T/C [54]: 91.3%; viability, T/C [55]: 61.2%; viability, T/C [56]: 61.1%; viability, T/C [57]: 55.1%; viability, T/C [58]: 55.5%; viability, T/C [59]: 49.3%; viability, T/C [60]: 44.7%
